32 compounds from patent publication US9926276B2, “Substituted benzamides with activity towards EP4 receptors” (DRACONIS PHARMA, S.L., priority 2013, dated 2018) can be followed below.

T1 sequence (P35408 whole entry): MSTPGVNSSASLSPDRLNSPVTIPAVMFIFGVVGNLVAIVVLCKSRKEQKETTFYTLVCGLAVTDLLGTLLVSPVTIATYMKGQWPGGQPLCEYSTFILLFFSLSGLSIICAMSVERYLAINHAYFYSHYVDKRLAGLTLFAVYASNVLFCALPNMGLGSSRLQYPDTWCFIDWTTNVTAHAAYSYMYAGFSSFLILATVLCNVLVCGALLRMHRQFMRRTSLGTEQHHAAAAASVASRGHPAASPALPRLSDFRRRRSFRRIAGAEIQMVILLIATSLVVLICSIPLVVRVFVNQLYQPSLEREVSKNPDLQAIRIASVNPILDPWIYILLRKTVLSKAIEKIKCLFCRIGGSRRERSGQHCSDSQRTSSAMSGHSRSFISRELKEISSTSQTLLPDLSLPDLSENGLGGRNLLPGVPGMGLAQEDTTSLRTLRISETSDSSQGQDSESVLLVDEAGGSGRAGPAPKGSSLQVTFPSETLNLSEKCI

For one assay, the target named is T1, human EP4 receptor (Homo sapiens, UniProt P35408). In words: Measurement of cAMP responses by Homogeneous Time Resolved Fluorescence (Test 2). It is filed as cell-based. More on the design: expressed in transfected cells. The settings on record: at 10 μM; PGE2 1 nM, HEK-293 cells stably expressing human EP4. Here is the method:
Test 2: Measurement of cAMP Responses by Homogeneous Time Resolved Fluorescence
cAMP measurements on HEK-293 cells that stably expressed human EP4 receptors were performed by using a system based on Homogeneous Time Resolved Fluorescense (HTRF). This technology allows the direct measurement of cAMP in living cells. The principle of this assay is based on competition between cAMP produced by cells and cAMP-d2 conjugate for the binding with monoclonal anti-cAMP-cryptate conjugate. The HTRF cAMP kit from CisBio was used according to the manufacturer's directions. The experimental procedure was performed as stated below.
Suspended cells (30,000 cells per well) were added to 96-well culture plates in 30 μl of Optimem supplemented with 500 μM IBMX. Compounds were then added in 10 μl of stimulation buffer and incubated at 25° C. for 30 minutes followed by 10 μl of PGE2 to a final concentration of 1 nM. After 30 minutes at 25° C., the reaction was stopped lysing the cells with a mixture of 25 μl of cryptate and 25 μl of cAMP-d2 prepared in the lysis buffer supplied by the manufacturer. Plates were incubated for an additional hour at room temperature and read at 665 nm/620 nm using an UltraEvolution Plate reader (Tecan).
Antagonist percentage inhibition was calculated relating compounds activity to the 0% inhibition of the wells incubated with 1 nM PGE2 alone and 100% inhibition of the wells incubated with 1 nM PGE2 plus 1 μM of the reference antagonist.
In the case of `COc1cccc(-c2ccc(Cl)c(C(=O)Nc3c(C)cc(C(=O)O)cc3C)c2)c1` [Example 1, 4-(4-Chloro-3′-methoxybiphenyl-3-ylcarboxamido)-3,5-dimethylbenzoic acid], the “Results of Test 2 (Functional assay, antagonist % inh)” value is “$ (% inh >75)”.
Same read-out and setting: then `Cc1cc(C(=O)O)cc(C)c1NC(=O)c1cc(-c2cccc(CO)c2)ccc1Cl` [Example 2, 4-(4-Chloro-3′-(hydroxymethyl)biphenyl-3-ylcarboxamido)-3,5-dimethylbenzoic acid], with “$ (% inh >75)”.

Another assay concerns the target T1, human EP4 receptor. Kind of assay: Human EP4 receptor radioligand binding assay (Test 1). More on the design: expressed in transfected cells; host or cells: HEK-293 cell membranes. The settings on record: [3H]-PGE2 1 nM, transfected HEK-293 cell membranes, read-out: Results of Test 1 (Binding assay, % inh). On the procedure:
Test 1: Human EP4 Receptor Radioligand Binding Assay
To investigate binding properties of EP4 receptor ligands to human EP4 receptor, transfected HEK-293 cell membranes and [3H]-PGE2 (Perkin Elmer) were used. In 96-well plates the assay was carried out with a total reaction volume of 250 μl, containing 25 μl of membrane suspension (30 μg protein/well), 25 μl of [3H]-PGE2 (1 nM) in either absence or presence of 25 μl of either buffer or PGE2 (10 μM) for total and non-specific binding, respectively. Binding buffer contained 25 mM MES, 10 mM MgCl2 and 1 mM EDTA at pH 6.0. Plates were incubated at 25° C. for 120 minutes. After the incubation period, 200 μl of incubate were transferred to MultiScreen HTS, FB plates (Millipore), filtered and plates were washed 6 times with ice-cold 10 mM MES, 0.01% BSA at pH 6.0. Filters were dried and counted in a MicroBeta scintillation counter (Perkin-Elmer) using EcoScint liquid scintillation cocktail.
Percentage inhibition was calculated relating compounds activity to the 0% inhibition of the wells incubated with 1 nM [3H]-PGE2 alone (total binding) and 100% inhibition of the wells incubated with 1 nM [3H]-PGE2 plus 10 μM PGE2 (non-specific binding).
As for `CC(C)COc1ccc(Cl)c(C(=O)Nc2ccc(C(=O)O)cc2Cl)c1` [Example 26, 3-Chloro-4-(2-chloro-5-isobutoxybenzamido)benzoic acid], the inhibition at 10 µM is greater than 75%.
On the same count and under the same terms, then `Cc1cc(C(=O)O)cc(Cl)c1NC(=O)c1cc(OCC(C)C)ccc1Cl` [Example 27, 3-Chloro-4-(2-chloro-5-isobutoxybenzamido)-5-methylbenzoic acid], with greater than 75%.
With `COc1cc(C(=O)O)ccc1NC(=O)c1cc(OCC(C)C)ccc1Cl` [Example 28, 4-(2-Chloro-5-isobutoxybenzamido)-3-methoxybenzoic acid], the inhibition at 10 µM was greater than 75%.
On the same count and under the same terms, for `O=C(O)c1cc(Cl)c(NC(=O)c2cc(OCc3ccccc3)ccc2Cl)c(Cl)c1` [Example 29, 4-(5-(Benzyloxy)-2-chlorobenzamido)-3,5-dichlorobenzoic acid] the value was greater than 75%; for `CC(C)Oc1ccc(Cl)c(C(=O)Nc2c(Cl)cc(C(=O)O)cc2Cl)c1` [Example 30, 3,5-Dichloro-4-(2-chloro-5-isopropoxybenzamido)benzoic acid], greater than 75%.
As to `COc1ccc(Cl)c(C(=O)Nc2c(Cl)cc(C(=O)O)cc2Cl)c1` [Example 31, 3,5-Dichloro-4-(2-chloro-5-methoxybenzamido)benzoic acid], the inhibition at 10 µM was greater than 75%.
The same measure, in the same setting: then `O=C(O)c1cc(Cl)c(NC(=O)c2cc(OCC3CCC3)ccc2Cl)c(Cl)c1` [Example 32, 3,5-Dichloro-4-(2-chloro-5-(cyclobutylmethoxy)benzamido)benzoic acid], with greater than 75%; and `CCOc1ccc(Cl)c(C(=O)Nc2c(Cl)cc(C(=O)O)cc2Cl)c1` [Example 33, 3,5-Dichloro-4-(2-chloro-5-ethoxybenzamido)benzoic acid], with greater than 75%; and `CC(C)(C)COc1ccc(Cl)c(C(=O)Nc2c(Cl)cc(C(=O)O)cc2Cl)c1` [Example 34, 3,5-Dichloro-4-(2-chloro-5-(neopentyloxy)benzamido)benzoic acid], with greater than 75%.
In the case of `O=C(Nc1c(F)c(F)c(C(=O)O)c(F)c1F)c1cc(OCc2ccc(F)cc2F)ccc1Cl` [Example 37, 4-(2-Chloro-5-(2,4-difluorobenzyloxy)benzamido)-2,3,5,6-tetrafluorobenzoic acid], the inhibition at 10 µM fell in the range of 45 to 75%.
`Cc1ccc(C(=O)O)cc1NC(=O)c1cc(-c2nccc(C(F)(F)F)n2)ccc1Cl` [Example 43, 3-(2-Chloro-5-(4-(trifluoromethyl)pyrimidin-2-yl)benzamido)-4-methylbenzoic acid]: the inhibition at 10 µM was greater than 75%.
The same measure, in the same setting: for `Cc1ccc(C(=O)O)cc1NC(=O)c1cc(OCC(C)C)ccc1Cl` [Example 44, 3-(2-Chloro-5-isobutoxybenzamido)-4-methylbenzoic acid] the value was greater than 75%; for `CC(C)COc1ccc(Cl)c(C(=O)Nc2c(Cl)cc(C(=O)O)cc2Cl)n1` [Example 49, 3,5-Dichloro-4-(3-chloro-6-isobutoxypicolinamido)benzoic acid], greater than 75%; for `O=C(O)c1cc(Cl)c(NC(=O)c2nc(NCC3CC3)ccc2Cl)c(Cl)c1` [Example 50, 3,5-Dichloro-4-(3-chloro-6-(cyclopropylmethylamino)picolinamido)benzoic acid], greater than 75%.
The same measure, in the same setting: then `O=C(O)c1cc(Cl)c(NC(=O)c2nc(NC3CCCC3)ccc2Cl)c(Cl)c1` [Example 51, 3,5-Dichloro-4-(3-chloro-6-(cyclopentylamino)picolinamido)benzoic acid], with greater than 75%; and `COCCN(C)c1ccc(Cl)c(C(=O)Nc2c(Cl)cc(C(=O)O)cc2Cl)n1` [Example 53, 3,5-Dichloro-4-(3-chloro-6-((2-methoxyethyl)(methyl)amino)-picolinamido)benzoic acid], with greater than 75%.
Still for that read-out and setting: then `CCCCN(C)c1ccc(Cl)c(C(=O)Nc2c(Cl)cc(C(=O)O)cc2Cl)n1` [Example 54, 4-(6-(Butyl(methyl)amino)-3-chloropicolinamido)-3,5-dichlorobenzoic acid], with greater than 75%; and `CCN(CC)c1ccc(Cl)c(C(=O)Nc2c(Cl)cc(C(=O)O)cc2Cl)n1` [Example 55, 3,5-Dichloro-4-(3-chloro-6-(diethylamino)picolinamido)benzoic acid], with greater than 75%; and `CCCNc1ccc(Cl)c(C(=O)Nc2c(Cl)cc(C(=O)O)cc2Cl)n1` [Example 56, 3,5-Dichloro-4-(3-chloro-6-(propylamino)picolinamido)benzoic acid], with greater than 75%.
`Cc1ccc(CC2CCCCC2)cc1C(=O)Nc1c(Cl)cc(C(=O)O)cc1Cl` [Example 61, 3,5-Dichloro-4-(5-(cyclohexylmethyl)-2-methylbenzamido)benzoic acid]: the inhibition at 10 µM is greater than 75%.
With `O=C(O)c1cc(Cl)c(NC(=O)c2cc(Cc3ccccc3)ccc2Cl)c(Cl)c1` [Example 62, 4-(5-Benzyl-2-chlorobenzamido)-3,5-dichlorobenzoic acid], the inhibition at 10 µM is greater than 75%.
The same measure, in the same setting: then `CC(C)Cc1ccc(Cl)c(C(=O)Nc2c(Cl)cc(C(=O)O)cc2Cl)c1` [Example 63, 3,5-Dichloro-4-(2-chloro-5-isobutylbenzamido)-benzoic acid], with greater than 75%; and `CCN(C(=O)c1cc(OCC(C)C)ccc1Cl)c1c(Cl)cc(C(=O)O)cc1Cl` [Example 66, 3,5-Dichloro-4-(2-chloro-5-isobutoxy-N-ethylbenzamido)benzoic acid], with greater than 75%; and `CC(C)COc1ccc(Cl)c(C(=O)N(CC(C)C)c2c(Cl)cc(C(=O)O)cc2Cl)c1` [Example 67, 3,5-Dichloro-4-(2-chloro-5-isobutoxy-N-isobutylbenzamido)benzoic acid], with greater than 75%.
On the same count and under the same terms, for `CCN(C(=O)c1cc(OCc2ccc(F)cc2F)ccc1Cl)c1c(Cl)cc(C(=O)O)cc1Cl` [Example 69, 3,5-Dichloro-4-(2-chloro-5-(2,4-difluorobenzyloxy)-N-ethylbenzamido)benzoic acid] the value was greater than 75%.
Same read-out and setting: for `CCN(C(=O)c1cc(OCc2ccc(Cl)cc2F)ccc1Cl)c1c(Cl)cc(C(=O)O)cc1Cl` [Example 70, 3,5-Dichloro-4-(2-chloro-5-(4-chloro-2-fluorobenzyloxy)-N-ethylbenzamido)benzoic acid] the value was greater than 75%; for `Cc1ccc(C(=O)O)cc1NC(=O)c1cc(OCc2ccccc2)ccc1Cl` [Example 71, Sodium 3-(5-(benzyloxy)-2-chlorobenzamido)-4-methylbenzoate], greater than 75%.

Staying with this assay, now noted: at 10 μM; [3H]-PGE2 1 nM, transfected HEK-293 cell membranes.
Take `COc1cccc(-c2ccc(Cl)c(C(=O)Nc3c(C)cc(C(=O)O)cc3C)c2)c1` [Example 1, 4-(4-Chloro-3′-methoxybiphenyl-3-ylcarboxamido)-3,5-dimethylbenzoic acid]: the “Results of Test 1 (Binding assay, % inh)” value is “# (% inh >75)”.
Still for that read-out and setting: then `Cc1cc(C(=O)O)cc(C)c1NC(=O)c1cc(-c2cccc(CO)c2)ccc1Cl` [Example 2, 4-(4-Chloro-3′-(hydroxymethyl)biphenyl-3-ylcarboxamido)-3,5-dimethylbenzoic acid], with “# (% inh >75)”; and `Cc1c(NC(=O)c2cc(-c3cccc(Cl)c3)ccc2Cl)cccc1C(=O)O` [Example 39, 3-(3′,4-Dichlorobiphenyl-3-ylcarboxamido)-2-methylbenzoic acid], with “# (% inh >75)”.
The same measure, in the same setting: for `Cc1ccc(C(=O)O)cc1NC(=O)c1cc(-c2cccc(Cl)c2)ccc1Cl` [Example 40, 3-(3′,4-Dichlorobiphenyl-3-ylcarboxamido)-4-methylbenzoic acid] the value was “# (% inh >75)”.
`O=C(O)c1ccc(Cl)c(NC(=O)c2cc(-c3cccc(Cl)c3)ccc2Cl)c1` [Example 41, 4-Chloro-3-(3′,4-dichlorobiphenyl-3-ylcarboxamido)benzoic acid]: the “Results of Test 1 (Binding assay, % inh)” value was “# (% inh >75)”.
